In US20080227732A1, “Treatment and Control of Severe Infections Including Cystic Fibrosis” (VENUS REMEDIES LIMITED, priority 2005, published 2008):

Assays:
[1] = tested on: Klebsiella; test: Bacterial susceptibility test, disc diffusion on Müeller-Hinton Agar; assay type: cell-based, Klebsiella pneumoniae; details: Concentration 2.18 g
Procedure: (§1) This test was performed by disc diffusion test for ceftazidime and tobramycin on Müeller-Hinton Agar medium purchased from Hi Media. The medium was prepared and used as per manufacturer's instructions. Ceftazidime alone, Tobramycin alone and the combination of Ceftazidime and Tobramycin, on different micro-organisms was taken. […] For each concentration the three zones were observed i.e for combination, Ceftazidime alone and Tobramycin alone and tested for efficacy against various types of micro-organisms.

[2] = tested on: C. albicanus; test: as above; assay type: cell-based; details: Concentration 2.18 g
Procedure: as §1

[3] = tested on: MRSA; test: as above; assay type: cell-based; details: for zone of inhibition: Staphylococcus aureus, MRSA, Concentration 560 mg
Procedure: as §1

[4] = tested on: P. aurignosa; test: as above; assay type: cell-based; details: for zone of inhibition: Concentration 560 mg; for Zone size: Concentration 1.12 g
Procedure: as §1

[5] = tested on: E. coli; test: as above; assay type: cell-based; details: for Zone size: Concentration 1.12 g; for zone of inhibition: Escherichia coli, Concentration 560 mg
Procedure: as §1

[6] = cited from earlier work
[7] = febrile children with neutropenia, 5 to 10 days of therapy; cited from earlier work
[8] = tested on: Stapylococcus; test: Bacterial susceptibility test, disc diffusion on Müeller-Hinton Agar; assay type: cell-based, Staphylococcus (MSSA); details: Concentration 2.18 g
Procedure: as §1

[9] = High: C 2.0, T 0.18, I 2.18 mg/ml
[10] = Highest: C 20.0, T 1.8, I 21.8 mg/ml
[11] = Low: C 0.2, T 0.018, I 0.218 mg/ml
[12] = Lowest: C 0.02, T 0.0018, I 0.0218 mg/ml
[13] = Concentration 1.12 g, High: C 1.0, T 0.12, I 1.12 mg/ml
[14] = Concentration 1.12 g, Highest: C 10.0, T 1.2, I 11.2 mg/ml
[15] = Concentration 1.12 g, Low: C 0.1, T 0.01, I 0.112 mg/ml
[16] = Concentration 1.12 g, Lowest: C 0.01, T 0.001, I 0.011 mg/ml
[17] = Concentration 2.18 g, High: C 2.0, T 0.18, I 2.18 mg/ml
[18] = Concentration 2.18 g, Highest: C 20.0, T 1.8, I 21.8 mg/ml
[19] = High: C 0.5, T 0.06, I 0.56 mg/ml
[20] = Highest: C 5.0, T 0.6, I 5.6 mg/ml
[21] = Lowest: C 0.005, T 0.0006, I 0.0056 mg/ml
[22] = Low: C 0.05, T 0.006, I 0.056 mg/ml
[23] = High: C 1.0, T 0.12, I 1.12 mg/ml
[24] = Highest: C 10.0, T 1.2, I 11.2 mg/ml
[25] = Low: C 0.1, T 0.01, I 0.112 mg/ml
[26] = Lowest: C 0.01, T 0.001, I 0.011 mg/ml

| Compound | Zone size [1, 9] [mm] | Zone size [1, 10] [mm] | Zone size [1, 11] [mm] | Zone size [2, 9] [mm] | Zone size [2, 10] [mm] | Zone size [2, 11] [mm] | Zone size [2, 12] [mm] | Zone size [3, 13] [mm] | Zone size [3, 14] [mm] | Zone size [3, 15] [mm] | Zone size [3, 16] [mm] | Zone size [3, 17] [mm] | Zone size [3, 18] [mm] | zone of inhibition [3, 19] [mm] | zone of inhibition [3, 20] [mm] | zone of inhibition [3, 21] [mm] | zone of inhibition [4, 19] [mm] | zone of inhibition [4, 20] [mm] | zone of inhibition [4, 22] [mm] | zone of inhibition [4, 21] [mm] | also measured |
| --- | --- | --- | --- | --- | --- | --- | --- | --- | --- | --- | --- | --- | --- | --- | --- | --- | --- | --- | --- | --- | --- |
| CC(C)(O/N=C(\C(=O)N[C@@H]1C(=O)N2C(C(=O)[O-])=C(C[n+]3ccccc3)CS[C@H]12)c1csc(N)n1)C(=O)O [C, Ceftazidime] | 47.47 | 51.22 | 46.30 | 31.25 | 37.55 | 18.37 | 12.90 | 12.53 | 22.39 | 0 | 0 | 27.32 | 44.93 | 12.9 | 21.2 | 0 | 36 | 41.8 | 24.5 | 14.4 | Zone size [4, 23]: 44.10 mm; Zone size [4, 24]: 48.34 mm; Zone size [4, 25]: 32.48 mm; Zone size [4, 26]: 29.34 mm; Zone size [5, 23]: 42.10 mm; Zone size [5, 24]: 47.34 mm; Zone size [5, 25]: 35.49 mm; Zone size [5, 26]: 33.34 mm; zone of inhibition [5, 19]: 42.1 mm; zone of inhibition [5, 20]: 47.3 mm; zone of inhibition [5, 22]: 35.5 mm; zone of inhibition [5, 21]: 33.3 mm; overall response rate in septicaemia ([6]; cancer patients): 75%; overall response rate ([6]; episodes of infection in cancer patients): 60%; patients clinically cured at the end of therapy [7]: 67%; Zone size [8, 9]: 35.76 mm; Zone size [8, 10]: 50.93 mm; Zone size [8, 11]: 22.45 mm |
| NC[C@H]1O[C@H](O[C@H]2[C@H](O)[C@@H](O[C@H]3O[C@H](CO)[C@@H](O)[C@H](N)[C@H]3O)[C@H](N)C[C@@H]2N)[C@H](N)C[C@@H]1O [T, Tobramycin] | 32.07 | 38.71 | 31.50 | 26.45 | 35.47 | 15.65 | 0 | 22.45 | 33.22 | 10.24 | 9.89 | 14.61 | 17.13 | 23.9 | 32.4 | 9.46 | 21.2 | 32.1 | 16.7 | 10.9 | zone of inhibition [3, 22]: 11.7 mm; Zone size [4, 23]: 23.02 mm; Zone size [4, 24]: 30.31 mm; Zone size [4, 25]: 19.16 mm; Zone size [4, 26]: 11.35 mm; Zone size [5, 23]: 25.02 mm; Zone size [5, 24]: 30.30 mm; Zone size [5, 25]: 22.16 mm; Zone size [5, 26]: 14.35 mm; zone of inhibition [5, 19]: 25 mm; zone of inhibition [5, 20]: 30.3 mm; zone of inhibition [5, 22]: 22.2 mm; zone of inhibition [5, 21]: 14.3 mm; Zone size [8, 9]: 27.49 mm; Zone size [8, 10]: 36.96 mm; Zone size [8, 11]: 16.68 mm |
